“And” between values parts separate entries of the source, which are not always exact repeats. Equal entries are not always repeated. The source made the active and inactive calls. Bounds are passed on as bounds.

The target of assay [1] is Cyclin-dependent kinase 2 (Homo sapiens, UniProt P24941). It counts as functional.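 Also: CDK2 measured as one member of a broad kinome profiling panel.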
The target in assay [2] is Serine/threonine-protein kinase D3 (Homo sapiens, UniProt O94806). Type of assay: functional.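 Also: determined within a kinase panel screen, with PRKCN as the panel member.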
Sequence of Serine/threonine-protein kinase D3 (O94806 whole entry): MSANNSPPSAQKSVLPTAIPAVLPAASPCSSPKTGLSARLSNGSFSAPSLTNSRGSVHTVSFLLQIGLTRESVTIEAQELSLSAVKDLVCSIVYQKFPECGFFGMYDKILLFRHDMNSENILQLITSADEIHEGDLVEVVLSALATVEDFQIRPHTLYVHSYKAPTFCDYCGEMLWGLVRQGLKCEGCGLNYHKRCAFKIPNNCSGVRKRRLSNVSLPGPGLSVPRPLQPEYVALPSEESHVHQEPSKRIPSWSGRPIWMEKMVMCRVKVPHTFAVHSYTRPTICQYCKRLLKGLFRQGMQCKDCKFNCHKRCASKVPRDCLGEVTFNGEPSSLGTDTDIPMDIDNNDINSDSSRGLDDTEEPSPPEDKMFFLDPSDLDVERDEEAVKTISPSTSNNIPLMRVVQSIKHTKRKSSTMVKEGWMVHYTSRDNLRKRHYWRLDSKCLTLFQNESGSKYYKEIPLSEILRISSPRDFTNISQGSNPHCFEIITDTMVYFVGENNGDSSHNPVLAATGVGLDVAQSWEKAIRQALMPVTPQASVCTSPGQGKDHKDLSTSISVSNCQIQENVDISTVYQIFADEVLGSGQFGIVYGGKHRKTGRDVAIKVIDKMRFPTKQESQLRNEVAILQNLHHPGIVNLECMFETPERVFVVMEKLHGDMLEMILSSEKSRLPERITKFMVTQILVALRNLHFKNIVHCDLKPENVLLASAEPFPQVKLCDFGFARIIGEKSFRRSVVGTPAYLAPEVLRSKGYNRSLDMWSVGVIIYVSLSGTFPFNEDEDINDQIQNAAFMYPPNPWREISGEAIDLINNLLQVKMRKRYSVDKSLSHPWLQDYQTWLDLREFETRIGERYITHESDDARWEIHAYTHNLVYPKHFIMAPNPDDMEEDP
Assay [3] has as its target Testis-specific serine/threonine-protein kinase 1 (Homo sapiens, UniProt Q9BXA7). Type of assay: functional.
The target in assay [4] is Maternal embryonic leucine zipper kinase (Homo sapiens, UniProt Q14680). It counts as functional.
Sequence of Maternal embryonic leucine zipper kinase (Q14680 whole entry): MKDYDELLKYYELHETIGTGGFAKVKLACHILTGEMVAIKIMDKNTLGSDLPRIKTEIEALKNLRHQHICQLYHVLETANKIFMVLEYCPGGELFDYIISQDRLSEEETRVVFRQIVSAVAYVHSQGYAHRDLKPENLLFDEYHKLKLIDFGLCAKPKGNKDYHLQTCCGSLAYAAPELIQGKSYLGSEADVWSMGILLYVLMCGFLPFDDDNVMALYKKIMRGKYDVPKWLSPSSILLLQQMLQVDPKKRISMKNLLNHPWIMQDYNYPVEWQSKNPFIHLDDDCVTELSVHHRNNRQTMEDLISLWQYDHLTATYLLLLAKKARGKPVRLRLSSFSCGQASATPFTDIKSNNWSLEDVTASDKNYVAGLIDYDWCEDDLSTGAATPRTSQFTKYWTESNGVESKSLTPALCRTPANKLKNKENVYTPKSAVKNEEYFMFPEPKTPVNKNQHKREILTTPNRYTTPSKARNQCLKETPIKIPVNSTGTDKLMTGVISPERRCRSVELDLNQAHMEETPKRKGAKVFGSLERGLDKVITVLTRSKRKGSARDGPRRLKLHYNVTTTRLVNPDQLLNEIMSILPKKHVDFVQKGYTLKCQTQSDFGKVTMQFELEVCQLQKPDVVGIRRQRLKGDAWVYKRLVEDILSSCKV
Assay [5] addresses Testis-specific serine/threonine-protein kinase 2 (Homo sapiens, UniProt Q96PF2). It counts as functional.
Assay [6] concerns the target cAMP-dependent protein kinase catalytic subunit alpha (Homo sapiens, UniProt P17612). Type of assay: functional.
Assay [7] deals with Fibroblast growth factor receptor 1 (Homo sapiens, UniProt P11362). It counts as functional.
For assay [8], the target named is RAC-alpha serine/threonine-protein kinase (Homo sapiens, UniProt P31749). Type of assay: functional.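 Also: AKT1 affinity measured as one member of a kinome-wide kinase profiling panel.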
Sequence of RAC-alpha serine/threonine-protein kinase (P31749 whole entry, the tested form may be a part): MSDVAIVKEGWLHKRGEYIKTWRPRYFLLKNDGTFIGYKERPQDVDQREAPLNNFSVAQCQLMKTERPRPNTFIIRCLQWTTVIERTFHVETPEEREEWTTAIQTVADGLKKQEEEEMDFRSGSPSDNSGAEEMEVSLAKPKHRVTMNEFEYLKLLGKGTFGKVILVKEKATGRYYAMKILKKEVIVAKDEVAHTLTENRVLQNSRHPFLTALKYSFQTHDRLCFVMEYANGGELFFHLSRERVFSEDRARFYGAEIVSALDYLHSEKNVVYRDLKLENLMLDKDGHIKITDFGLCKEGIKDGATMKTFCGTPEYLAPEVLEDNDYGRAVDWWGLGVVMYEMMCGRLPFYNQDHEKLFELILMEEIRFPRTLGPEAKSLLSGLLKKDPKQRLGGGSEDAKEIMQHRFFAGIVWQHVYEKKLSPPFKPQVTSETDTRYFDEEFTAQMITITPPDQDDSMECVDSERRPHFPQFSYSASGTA
The target in a further assay is LIM domain kinase 1 (Homo sapiens, UniProt P53667). The experiment in a line: Navigating the Kinome. Panel member name: LIMK1. It counts as functional.
The target in assay [9] is Tyrosine-protein kinase JAK2 (Homo sapiens, UniProt O60674). Type of assay: functional.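 Also: JAK2 tested as one member of a kinase panel.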
Sequence of Tyrosine-protein kinase JAK2 (O60674 whole entry): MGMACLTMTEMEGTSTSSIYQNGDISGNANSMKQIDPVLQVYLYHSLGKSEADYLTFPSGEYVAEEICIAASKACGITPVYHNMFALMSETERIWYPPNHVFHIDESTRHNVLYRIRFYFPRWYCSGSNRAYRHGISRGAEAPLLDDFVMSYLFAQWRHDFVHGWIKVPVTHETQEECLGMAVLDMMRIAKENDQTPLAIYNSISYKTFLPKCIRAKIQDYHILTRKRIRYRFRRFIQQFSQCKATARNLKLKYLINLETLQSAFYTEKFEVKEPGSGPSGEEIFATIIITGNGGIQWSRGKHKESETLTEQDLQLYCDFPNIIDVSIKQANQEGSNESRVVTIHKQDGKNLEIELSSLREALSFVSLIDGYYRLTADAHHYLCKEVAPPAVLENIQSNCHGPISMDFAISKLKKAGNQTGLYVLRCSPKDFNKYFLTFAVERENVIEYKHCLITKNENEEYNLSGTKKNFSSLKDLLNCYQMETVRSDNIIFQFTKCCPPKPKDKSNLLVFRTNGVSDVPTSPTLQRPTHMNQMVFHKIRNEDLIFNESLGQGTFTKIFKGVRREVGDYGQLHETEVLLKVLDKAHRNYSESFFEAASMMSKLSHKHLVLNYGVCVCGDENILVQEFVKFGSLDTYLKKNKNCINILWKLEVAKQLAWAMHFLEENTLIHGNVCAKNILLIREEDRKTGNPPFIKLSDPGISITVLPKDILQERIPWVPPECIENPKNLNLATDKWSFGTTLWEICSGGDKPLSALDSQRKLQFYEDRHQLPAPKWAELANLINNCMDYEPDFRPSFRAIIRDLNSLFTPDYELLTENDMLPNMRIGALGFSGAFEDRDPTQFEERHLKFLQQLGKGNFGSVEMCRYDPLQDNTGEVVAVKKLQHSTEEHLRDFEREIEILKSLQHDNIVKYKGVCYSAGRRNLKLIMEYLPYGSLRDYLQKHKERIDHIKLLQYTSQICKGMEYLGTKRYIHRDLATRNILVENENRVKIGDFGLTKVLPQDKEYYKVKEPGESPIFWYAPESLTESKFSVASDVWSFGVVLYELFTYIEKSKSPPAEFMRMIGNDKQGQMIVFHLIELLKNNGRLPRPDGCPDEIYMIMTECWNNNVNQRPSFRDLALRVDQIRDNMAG
The next assay has as its target T1, Phosphomannomutase 2 (Homo sapiens, UniProt O15305).
T1 sequence (O15305 whole entry): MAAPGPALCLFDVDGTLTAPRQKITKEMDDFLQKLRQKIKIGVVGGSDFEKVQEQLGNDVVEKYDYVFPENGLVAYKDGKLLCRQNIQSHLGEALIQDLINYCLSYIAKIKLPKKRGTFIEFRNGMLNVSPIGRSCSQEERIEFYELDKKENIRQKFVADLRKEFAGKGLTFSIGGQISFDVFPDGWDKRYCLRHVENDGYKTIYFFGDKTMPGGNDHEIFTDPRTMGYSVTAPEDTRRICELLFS
The experiment in a line: Counter screen SAR assay for PMM2 inhibitors via a fluorescence intensity assay. [Related pubchem assays (depositor defined):AID1545, AID1574]. A general note: Counterscreens check selectivity or assay interference.

The nature of assay [10]: Luminescence-based dose response cell-based high throughput screening assay for cytotoxic compounds using the IEC-6 intestinal epithelial cell line. [Related pubchem assays: 1858 (Summary AID.), 1825 (Counterscreen.), 1907 (Confirmation screen.)]. Type of assay: functional.
The target in assay [11] is T2, Zinc finger protein mex-5 (Caenorhabditis elegans, UniProt Q9XUB2).
T2 sequence (Q9XUB2 whole entry): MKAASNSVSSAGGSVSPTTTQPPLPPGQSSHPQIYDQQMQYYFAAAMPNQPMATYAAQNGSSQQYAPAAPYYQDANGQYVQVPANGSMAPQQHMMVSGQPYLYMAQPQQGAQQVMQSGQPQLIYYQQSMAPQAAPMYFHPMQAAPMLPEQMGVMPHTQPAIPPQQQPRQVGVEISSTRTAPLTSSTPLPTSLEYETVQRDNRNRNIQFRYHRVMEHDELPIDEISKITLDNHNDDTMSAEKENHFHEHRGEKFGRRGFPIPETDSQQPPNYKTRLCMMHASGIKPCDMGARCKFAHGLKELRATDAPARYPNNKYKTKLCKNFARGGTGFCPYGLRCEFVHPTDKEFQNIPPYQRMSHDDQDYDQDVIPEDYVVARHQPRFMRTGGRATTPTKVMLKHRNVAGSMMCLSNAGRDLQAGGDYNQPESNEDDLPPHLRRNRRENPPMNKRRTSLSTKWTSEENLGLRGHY
The experiment in a line: MEX-5/TCR-2 RNA interaction inhibitors, dose response, biochemical, C. elegans, fluorescence polarization (AID 1960).

Assay [12] deals with T3, Apoptotic protease-activating factor 1 (Homo sapiens, UniProt O14727).
T3 sequence (O14727 whole entry): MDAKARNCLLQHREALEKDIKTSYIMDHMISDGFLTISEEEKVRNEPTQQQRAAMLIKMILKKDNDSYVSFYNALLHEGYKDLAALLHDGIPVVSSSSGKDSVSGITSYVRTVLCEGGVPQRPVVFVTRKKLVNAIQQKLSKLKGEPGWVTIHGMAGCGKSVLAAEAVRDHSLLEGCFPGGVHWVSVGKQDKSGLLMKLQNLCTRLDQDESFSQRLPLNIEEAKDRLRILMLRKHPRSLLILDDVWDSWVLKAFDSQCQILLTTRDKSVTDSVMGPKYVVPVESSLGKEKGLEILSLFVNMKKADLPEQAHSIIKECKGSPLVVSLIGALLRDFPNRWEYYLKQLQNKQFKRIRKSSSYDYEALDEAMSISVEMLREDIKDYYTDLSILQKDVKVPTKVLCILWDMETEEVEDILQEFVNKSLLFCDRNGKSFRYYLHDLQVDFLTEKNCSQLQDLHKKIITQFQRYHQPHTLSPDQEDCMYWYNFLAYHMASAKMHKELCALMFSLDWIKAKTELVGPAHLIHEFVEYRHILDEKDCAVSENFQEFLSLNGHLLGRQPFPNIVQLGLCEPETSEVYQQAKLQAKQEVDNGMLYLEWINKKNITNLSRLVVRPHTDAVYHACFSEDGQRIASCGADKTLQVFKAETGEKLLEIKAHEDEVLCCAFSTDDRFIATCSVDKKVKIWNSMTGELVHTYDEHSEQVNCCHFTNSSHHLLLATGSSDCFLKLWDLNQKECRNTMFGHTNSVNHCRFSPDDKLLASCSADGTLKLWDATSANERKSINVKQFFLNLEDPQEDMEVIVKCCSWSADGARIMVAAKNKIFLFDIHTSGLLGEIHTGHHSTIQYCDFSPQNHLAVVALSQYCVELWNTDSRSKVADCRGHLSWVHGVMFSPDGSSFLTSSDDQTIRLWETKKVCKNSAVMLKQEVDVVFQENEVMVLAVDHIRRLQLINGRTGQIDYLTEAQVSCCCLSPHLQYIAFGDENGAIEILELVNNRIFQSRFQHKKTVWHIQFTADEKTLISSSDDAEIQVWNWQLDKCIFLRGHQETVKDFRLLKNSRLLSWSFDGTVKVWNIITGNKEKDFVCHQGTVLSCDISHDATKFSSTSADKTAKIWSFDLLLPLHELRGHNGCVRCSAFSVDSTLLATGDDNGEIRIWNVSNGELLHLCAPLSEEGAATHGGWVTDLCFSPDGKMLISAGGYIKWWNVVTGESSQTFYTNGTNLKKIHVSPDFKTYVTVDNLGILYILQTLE
It counts as functional.

Assay [13] has as its target NACHT, LRR and PYD domains-containing protein 3 (Homo sapiens, UniProt Q96P20). The experiment in a line: NALP3 inhibitors in yeast, dose response, luminescent (AID 488799). It counts as functional.
In the next assay the test system is HEK293. Nature of the assay: SAR Analysis of small molecule inhibitors of T-cell specific antigen receptor-induced NF-kB activation in a HEK-293T cell line using a luminescence assay. [Related pubchem assays (depositor defined):AID435003, AID435012, AID489026]. Type of assay: functional, cell-based. The settings on record: Homo sapiens.
In the next assay the test system is INS1. Nature of the assay: beta cell apoptosis inhibitors, cytokine rescue, dose response, luminescence, retest (AID 449756).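 Also: cell death triggered by IL-1 beta plus TNF-alpha plus IFN-gamma mixture; protective hits raise ATP signal compared with cytokine alone wells.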 Type of assay: functional, cell-based. The conditions noted are these: Rattus norvegicus.

Sequence of Testis-specific serine/threonine-protein kinase 2 (Q96PF2 whole entry): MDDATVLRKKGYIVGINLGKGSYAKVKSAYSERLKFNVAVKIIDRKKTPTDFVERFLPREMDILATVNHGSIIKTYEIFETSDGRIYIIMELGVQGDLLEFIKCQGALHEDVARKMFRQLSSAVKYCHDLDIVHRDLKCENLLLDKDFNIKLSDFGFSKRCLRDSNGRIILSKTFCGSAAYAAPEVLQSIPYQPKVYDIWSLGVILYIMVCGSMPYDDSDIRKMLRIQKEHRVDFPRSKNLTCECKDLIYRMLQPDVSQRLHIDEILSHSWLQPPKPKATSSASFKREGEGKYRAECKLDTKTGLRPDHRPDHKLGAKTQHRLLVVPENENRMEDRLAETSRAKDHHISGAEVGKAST
Sequence of NACHT, LRR and PYD domains-containing protein 3 (Q96P20 whole entry, the tested form may be a part): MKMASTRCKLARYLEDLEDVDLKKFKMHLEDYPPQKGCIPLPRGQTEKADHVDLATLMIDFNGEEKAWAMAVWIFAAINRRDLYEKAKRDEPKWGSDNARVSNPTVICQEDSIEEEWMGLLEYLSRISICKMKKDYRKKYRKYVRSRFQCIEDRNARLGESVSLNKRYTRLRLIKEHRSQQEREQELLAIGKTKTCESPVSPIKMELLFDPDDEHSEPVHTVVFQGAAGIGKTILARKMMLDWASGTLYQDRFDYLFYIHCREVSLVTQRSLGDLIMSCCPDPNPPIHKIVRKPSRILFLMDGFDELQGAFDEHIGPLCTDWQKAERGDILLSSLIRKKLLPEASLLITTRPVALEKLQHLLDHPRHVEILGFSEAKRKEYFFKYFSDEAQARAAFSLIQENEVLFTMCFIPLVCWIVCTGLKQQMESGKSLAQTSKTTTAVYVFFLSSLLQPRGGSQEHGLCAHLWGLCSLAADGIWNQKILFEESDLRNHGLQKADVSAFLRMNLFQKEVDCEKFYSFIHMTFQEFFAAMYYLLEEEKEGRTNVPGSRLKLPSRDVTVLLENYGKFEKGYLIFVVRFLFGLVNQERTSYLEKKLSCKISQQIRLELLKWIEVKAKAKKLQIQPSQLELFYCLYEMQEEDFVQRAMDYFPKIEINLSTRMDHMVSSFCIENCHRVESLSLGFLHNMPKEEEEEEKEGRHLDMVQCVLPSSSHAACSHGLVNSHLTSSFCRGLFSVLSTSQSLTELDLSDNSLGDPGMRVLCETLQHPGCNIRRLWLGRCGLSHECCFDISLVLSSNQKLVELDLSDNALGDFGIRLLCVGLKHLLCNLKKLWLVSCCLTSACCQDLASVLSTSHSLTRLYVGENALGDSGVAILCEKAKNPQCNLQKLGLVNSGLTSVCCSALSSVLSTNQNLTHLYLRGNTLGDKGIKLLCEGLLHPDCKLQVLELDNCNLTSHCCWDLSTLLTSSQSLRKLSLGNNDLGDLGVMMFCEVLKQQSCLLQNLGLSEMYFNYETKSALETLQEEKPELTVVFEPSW
Sequence of Testis-specific serine/threonine-protein kinase 1 (Q9BXA7 whole entry): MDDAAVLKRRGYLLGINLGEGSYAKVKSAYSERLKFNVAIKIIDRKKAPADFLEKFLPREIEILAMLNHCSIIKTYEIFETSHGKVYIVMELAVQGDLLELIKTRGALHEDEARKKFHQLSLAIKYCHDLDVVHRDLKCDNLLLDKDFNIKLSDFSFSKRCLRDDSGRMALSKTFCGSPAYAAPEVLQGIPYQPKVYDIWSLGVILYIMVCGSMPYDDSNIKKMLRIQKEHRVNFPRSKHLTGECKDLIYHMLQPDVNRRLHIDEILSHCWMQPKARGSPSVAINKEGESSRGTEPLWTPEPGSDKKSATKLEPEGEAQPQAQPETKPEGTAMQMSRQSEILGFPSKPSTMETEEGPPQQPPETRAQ

In general, Ki refers to the dissociation constant of the complex between target and ligand, obtained from inhibition or displacement. For `Cc1cccc(NC(=O)Nc2ccc3c(c2)CCc2sc4ncnc(N)c4c2-3)c1`, the Ki was > 7940 nM (inactive) in [1]; 2510 nM (active) in [2]; > 1580 nM (inactive) in assay [3]; 794 nM (active) in [4]; > 1580 nM (inactive) in [5]; > 7940 nM (inactive) in assay [6]. Also, the Ki is 2510 nM (active) in assay [7], > 7940 nM (inactive) in [8], 631 nM (active) at LIM domain kinase 1 and > 1580 nM (inactive) in assay [9].

A word on the IC50: it is the concentration needed to halve the response being measured. In the case of `Cc1ccc(-n2sc3ccccc3c2=O)cc1`, at Phosphomannomutase 2, the IC50 was > 100 µM (inactive) and 38 µM (active).

For the compound `CCC(=O)NC(c1ccc(C)cc1)c1ccc2cccnc2c1O` (configuration not stated), the IC50 in assay [10] was 1620 nM (active).

The EC50 is the concentration giving half of the maximal effect. `N/C(=N\N=C/c1ccc(-c2ccc(O)c(C(=O)O)c2)o1)N[N+](=O)[O-]`: in assay [11], the EC50 is 26100 nM (active).

For `CC(=O)N(/N=C1\Sc2ccccc2C1=O)c1ccccc1C`, the results for the IC50 in [12] and in assay [13] were 5130 nM (active) and 8340 nM (active), respectively.

As a reminder, the AC50 is the concentration giving half of the maximal activity seen. As for `CCCC(=O)NC(c1ccc(Cl)cc1)c1ccc2cccnc2c1O` (configuration not stated), the IC50 in the assay on HEK293 was 3720 nM (active). Also, the AC50 with INS1 was 458 nM (active).

(Values after ChEMBL document CHEMBL1201862, “PubChem BioAssay data set” (2004).)
